The values that follow come from patent US9616065B2, “Compositions useful in treating brain-related diseases or disorders and methods using same” (priority 2013, dated 2017).

Entries after “also recorded” stand apart in the source; their conditions may differ. Like-named read-outs stand apart in the source and are kept apart here.

The test system of data set [1] is mSERT mutant YETQ-L563V. Kind of data set: Serotonin uptake kinetics, mSERT mutant YETQ-L563V. The conditions noted are these: read-out: apparent affinity (Km). The format is cell-based, mouse.
Another data set has as its target T1, hDAT (Homo sapiens, UniProt Q01959).
T1 construct: expressed in transfected cells; host or cells: COS-7, HEK293 or MDCK
Kind of data set: [3H]-dopamine uptake after preincubation with modulator. The format is cell-based. On the procedure: (§1) COS-7, HEK293, and MDCK cells were maintained in Dulbecco modified Eagle medium (3.5 g/l glucose) supplemented with FBS (10% each) at 37° C. with 5% CO2. Uptake experiments were performed 2 days after transfecting DNAs (hSERT, human dopamine transporter [hDAT], chimeras or mutants, or empty vector for background) with TransIT-LT1 (Minis Bio LLC, Madison, Wis., USA) transfection reagent and plating the cells in 24- or 96-well plates.
(§2) The uptake was allowed to continue for 10 min at room temperature and was terminated by washing with PBS-CM. […] Vmax and KM are given as mean±S.D. of three independent experiments. […] EC50 values are given as mean±S.E.M. of at least five independent experiments. Statistical significance between vehicle and drug treatments was assessed using Student t-test or one-way analysis of variance (ANOVA) Dunnett's multiple-comparison test (p<0.05).

The next data set concerns the target T2, WT hDAT (Homo sapiens, UniProt Q01959).
T2 construct: expressed in transfected cells; host or cells: COS-7, HEK293 or MDCK
Kind of data set: Amphetamine-induced efflux with modulator, hDAT WT. Type of data set: cell-based. The settings on record: 5 nM amphetamine. How it is done: (§3) Efflux is terminated by collecting the supernatant. Both cells and supernatant are counted by liquid scintillation counting. Efflux is calculated as ratio of supernatant over supernatant and cells.

For another data set, the target named is T3, hDAT N93A mutant (Homo sapiens, UniProt Q01959, N93A).
T3 construct: expressed in transfected cells; host or cells: COS-7
T3 sequence (Q01959 1-620 N93A): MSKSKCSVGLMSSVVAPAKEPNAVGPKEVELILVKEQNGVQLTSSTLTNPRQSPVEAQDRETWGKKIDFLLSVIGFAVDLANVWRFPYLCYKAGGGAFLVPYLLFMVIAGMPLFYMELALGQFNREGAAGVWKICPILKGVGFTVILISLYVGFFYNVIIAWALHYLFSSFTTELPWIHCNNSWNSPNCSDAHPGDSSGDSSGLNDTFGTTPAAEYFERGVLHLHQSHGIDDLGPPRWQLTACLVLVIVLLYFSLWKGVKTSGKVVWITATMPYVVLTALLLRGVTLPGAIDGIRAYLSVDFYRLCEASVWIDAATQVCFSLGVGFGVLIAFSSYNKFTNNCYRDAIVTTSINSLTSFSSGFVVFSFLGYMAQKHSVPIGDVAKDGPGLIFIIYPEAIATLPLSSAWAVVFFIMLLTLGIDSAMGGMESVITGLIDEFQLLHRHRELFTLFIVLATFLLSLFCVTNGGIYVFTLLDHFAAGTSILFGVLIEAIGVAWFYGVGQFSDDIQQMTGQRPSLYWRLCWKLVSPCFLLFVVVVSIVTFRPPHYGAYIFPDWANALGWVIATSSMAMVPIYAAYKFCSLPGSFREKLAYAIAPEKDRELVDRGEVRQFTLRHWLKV
Kind of data set: Amphetamine-induced efflux with modulator, hDAT N93A mutant. The format is cell-based. The settings on record: low concentrations of amphetamine. How it is done:
as §3

For another data set, the system named is hDAT L89C mutant (L89A). Kind of data set: Dopamine uptake inhibition assay, hDAT L89 mutant. Type of data set: cell-based, human. On the procedure: (§4) Mutants are functionally tested in transfected COS-7 cells. Based on the success of the approach that identified the A1 site, the critical residues identified elsewhere herein are tested for changes in uptake kinetics and amphetamine-mediated efflux. Following this initial screen, residues displaying altered activity are tested further in uptake inhibition and ligand displacement assays. For uptake, cells are washed with PBSCM (phosphate-buffered saline with 1 mM MgCl, 0.1 mM CaCl2, 100 μM ascorbic acid, 10 μM clorgyline, 100 μM pargyline, and 10 μM RO 41-0960). To initiate uptake, cells are incubated for 10 min at 25° C. with various concentrations of radiolabeled monoamine. Following uptake, cells are washed and radioactivity is counted using liquid scintillation counting. […] Apparent Km and Vmax are determined using nonlinear regression analysis. The interaction of WT and mutant MAT with psychostimulants and transporter inhibitors is assessed using uptake inhibition assays. Cells are transfected as described elsewhere herein, but before uptake is initiated the cells are preincubated with various concentrations of ligand for 10 min. Uptake is initiated and performed as described elsewhere herein.

The target in the next data set is SmSERT (Schistosoma mansoni, UniProt Q3I1M7). Kind of data set: Transport inhibition constants, SmSERT. The format is cell-based.
The target in the next data set is SmDAT (Schistosoma mansoni, UniProt E9LD23). Kind of data set: Transport inhibition constants, SmDAT. The format is cell-based.
Another data set deals with T4, SERT (Homo sapiens, UniProt P31645).
T4 construct: The templates were full-length and nontagged human SERT in pcdna3.1; expressed in transfected cells; host or cells: COS-7, HEK293 or MDCK (uptake); COS-7 (efflux)
Kind of data set: [3H]-serotonin uptake after preincubation with modulator. The format is cell-based. On the procedure: as §1, §2

Data set [2] addresses T5, NET (Homo sapiens, UniProt P23975).
T5 construct: expressed in transfected cells
Kind of data set: NET interaction with amphetamine in presence of modulator. The format is cell-based. On the procedure: as §4

Data set [3] has as its target T6, human SERT amino acid 112 mutant (N112C) (Homo sapiens, UniProt P31645, N112C).
T6 construct: The templates were full-length and nontagged human SERT in pcdna3.1; expressed in transfected cells; host or cells: COS-7
Kind of data set: Amphetamine-elicited efflux, human SERT amino acid 112 mutant. The format is cell-based. The conditions noted are these: 1 μM amphetamine. How it is done:
(§5) COS-7 cells were maintained under the same conditions as above. Efflux experiments were performed 2 days after cell transfection with hSERT or empty vector and plating of the cells in 24-well plates. Cells were washed with room temperature PBS-CM and then loaded with 50 nM [^3H]-serotonin for 1 h. After preloading, cells were washed twice with buffer and then incubated for 10 min with or without substrates at room temperature. After incubation, the supernatant was collected, liquid scintillation fluid added, and the samples counted (Beckman LS-6500 Multi-purpose Scintillation Counter; Beckman Coulter, Brea, Calif.). The cells were solubilized in a solution of 0.1% sodium dodecyl sulfate and 0.1 M NaOH; liquid scintillation fluid was added and tubes were counted as above. All assays were done in quadruplicate.
(§6) The percentage of [^3H]-serotonin efflux among different treatments was calculated by adding counts of supernatant plus cell lysis, with the supernatant counts then divided by the total and multiplied by 100 to yield the percentage of efflux.
(§7) To investigate the role of central domains formed by TMD1 and 6 within SERT, chimeras were produced between the human and parasite SERT and TMD1 and 2 or 6 and 7, respectively, were replaced in the human SERT with their parasite counterparts. […]

Data set [4] concerns the target T7, human SERT amino acid 328 mutant (D328C) (Homo sapiens, UniProt P31645, D328C).
T7 construct: The templates were full-length and nontagged human SERT in pcdna3.1; expressed in transfected cells; host or cells: COS-7
Kind of data set: Amphetamine-elicited efflux, human SERT amino acid 328 mutant. The conditions noted are these: 1 μM amphetamine. The format is cell-based. How it is done: as §5, §6, §7

Data set [5] relates to mSERT mutant YETQ-L563V. Kind of data set: Substrate-elicited efflux, mSERT mutant YETQ-L563V. The format is cell-based, mouse. The conditions noted are these: up to highest testable concentration. How it is done: as §3
The next data set concerns the target wild-type human SERT (Homo sapiens, UniProt P31645). Kind of data set: Amphetamine-elicited efflux, wild-type human SERT. Also noted: The templates were full-length and nontagged human SERT in pcdna3.1; expressed in transfected cells; host or cells: COS-7, HEK293 or MDCK (uptake); COS-7 (efflux). Type of data set: cell-based. The conditions noted are these: 1 μM amphetamine. On the procedure: as §5, §6, §7

Data set [6] deals with T5, NET. Kind of data set: hNET uptake assay with transporter modulators. Type of data set: cell-based.
Substrate in data set [7]: NCCc1c[nH]c2ccc(O)cc12
Kind of data set: cells, lysate or membranes. The settings on record: other: WT mSERT.

Setting [8] is: read-out: Ki transport inhibition SmDAT.

SmSERT, sequence (Q3I1M7 entry or part of it): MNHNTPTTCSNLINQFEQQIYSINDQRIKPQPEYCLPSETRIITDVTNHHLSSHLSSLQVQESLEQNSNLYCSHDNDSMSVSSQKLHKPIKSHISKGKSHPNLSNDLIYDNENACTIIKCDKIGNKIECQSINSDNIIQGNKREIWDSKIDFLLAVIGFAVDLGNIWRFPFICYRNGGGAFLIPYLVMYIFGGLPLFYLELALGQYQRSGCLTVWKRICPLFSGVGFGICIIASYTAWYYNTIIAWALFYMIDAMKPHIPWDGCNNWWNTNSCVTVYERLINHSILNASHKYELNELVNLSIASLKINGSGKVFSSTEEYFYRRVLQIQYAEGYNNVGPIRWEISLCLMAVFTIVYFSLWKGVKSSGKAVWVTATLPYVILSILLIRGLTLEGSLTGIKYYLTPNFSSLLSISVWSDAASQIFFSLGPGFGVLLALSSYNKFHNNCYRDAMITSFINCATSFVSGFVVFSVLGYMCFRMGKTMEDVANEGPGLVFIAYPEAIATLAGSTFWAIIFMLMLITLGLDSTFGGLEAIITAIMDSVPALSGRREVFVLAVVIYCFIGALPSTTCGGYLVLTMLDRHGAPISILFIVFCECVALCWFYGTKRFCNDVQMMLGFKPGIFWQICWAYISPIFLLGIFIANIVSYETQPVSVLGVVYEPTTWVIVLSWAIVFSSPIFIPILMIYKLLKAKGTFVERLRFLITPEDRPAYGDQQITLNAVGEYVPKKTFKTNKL
SmDAT, sequence (E9LD23 1-727): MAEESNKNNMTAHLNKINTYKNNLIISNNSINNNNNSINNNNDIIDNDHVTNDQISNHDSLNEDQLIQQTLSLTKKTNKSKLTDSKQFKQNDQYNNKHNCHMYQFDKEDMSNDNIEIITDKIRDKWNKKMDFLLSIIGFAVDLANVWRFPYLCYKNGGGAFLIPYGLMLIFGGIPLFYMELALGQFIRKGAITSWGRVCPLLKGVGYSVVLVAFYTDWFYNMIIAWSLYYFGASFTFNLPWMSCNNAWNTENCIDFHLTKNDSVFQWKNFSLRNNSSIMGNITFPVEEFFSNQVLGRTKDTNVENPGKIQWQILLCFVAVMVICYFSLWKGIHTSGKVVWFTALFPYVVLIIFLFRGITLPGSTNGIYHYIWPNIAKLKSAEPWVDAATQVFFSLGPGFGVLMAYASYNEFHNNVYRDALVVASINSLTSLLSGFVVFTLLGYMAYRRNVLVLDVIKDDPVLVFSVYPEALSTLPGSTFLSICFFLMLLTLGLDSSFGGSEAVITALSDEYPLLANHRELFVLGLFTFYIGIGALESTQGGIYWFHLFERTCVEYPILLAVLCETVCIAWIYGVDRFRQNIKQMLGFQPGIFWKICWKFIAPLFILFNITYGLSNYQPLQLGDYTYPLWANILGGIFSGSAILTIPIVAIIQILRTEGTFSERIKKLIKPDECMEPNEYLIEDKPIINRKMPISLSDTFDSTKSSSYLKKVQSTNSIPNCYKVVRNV
T1 sequence (Q01959 whole entry): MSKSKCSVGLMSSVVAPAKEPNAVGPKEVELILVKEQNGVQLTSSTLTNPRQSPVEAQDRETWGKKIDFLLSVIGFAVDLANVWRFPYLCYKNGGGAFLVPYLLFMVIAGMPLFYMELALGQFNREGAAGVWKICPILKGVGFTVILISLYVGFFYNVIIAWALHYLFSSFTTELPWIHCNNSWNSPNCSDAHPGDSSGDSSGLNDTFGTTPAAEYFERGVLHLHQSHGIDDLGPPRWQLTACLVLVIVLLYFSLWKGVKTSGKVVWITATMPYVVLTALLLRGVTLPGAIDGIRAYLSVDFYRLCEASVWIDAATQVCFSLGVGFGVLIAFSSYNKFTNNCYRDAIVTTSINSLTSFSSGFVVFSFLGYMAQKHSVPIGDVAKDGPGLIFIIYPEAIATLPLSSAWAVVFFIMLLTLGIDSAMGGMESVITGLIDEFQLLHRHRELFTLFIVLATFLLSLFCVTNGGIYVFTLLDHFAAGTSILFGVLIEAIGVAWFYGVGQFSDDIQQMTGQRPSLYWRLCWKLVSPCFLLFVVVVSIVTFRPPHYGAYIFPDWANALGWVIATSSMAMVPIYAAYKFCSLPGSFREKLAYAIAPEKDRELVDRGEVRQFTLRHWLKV
T5 sequence (P23975 whole entry): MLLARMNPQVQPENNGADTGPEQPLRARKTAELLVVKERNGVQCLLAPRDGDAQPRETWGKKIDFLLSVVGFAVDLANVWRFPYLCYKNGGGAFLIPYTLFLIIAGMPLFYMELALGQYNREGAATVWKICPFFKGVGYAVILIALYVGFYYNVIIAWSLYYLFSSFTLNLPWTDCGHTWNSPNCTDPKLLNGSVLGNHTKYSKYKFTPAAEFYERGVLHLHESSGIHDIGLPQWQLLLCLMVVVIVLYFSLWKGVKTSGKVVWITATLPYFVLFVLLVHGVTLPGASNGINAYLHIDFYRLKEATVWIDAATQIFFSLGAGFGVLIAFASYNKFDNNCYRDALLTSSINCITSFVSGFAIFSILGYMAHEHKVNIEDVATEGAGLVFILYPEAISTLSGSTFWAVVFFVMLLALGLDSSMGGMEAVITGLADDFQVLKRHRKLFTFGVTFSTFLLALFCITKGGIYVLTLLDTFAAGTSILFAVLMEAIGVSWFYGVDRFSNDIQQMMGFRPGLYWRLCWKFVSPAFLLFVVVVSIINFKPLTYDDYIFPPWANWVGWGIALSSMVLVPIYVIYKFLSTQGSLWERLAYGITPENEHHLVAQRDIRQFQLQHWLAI
T2 sequence (Q01959 whole entry): as the sequence (Q01959 whole entry) above

On to `NCCc1c[nH]c2ccc(O)cc12` [serotonin], for which the Km in the data set on mSERT mutant YETQ-L563V [1] was determined as 4.7 ± 1.3 µM.
Consider `CCc1ccc2[nH]c3nc(SCCNS(=O)(=O)c4ccc(NC(C)=O)cc4)nnc3c2c1` [ATM5], for which, at hDAT, the “effect on DAT uptake activity / specificity” value was “higher activity towards hDAT than hSERT”; the “shape of concentration response on hDAT uptake” value was “biphasic activity enhancing hDAT activity at low concentrations and inhibiting hDAT function at higher concentrations”. Moreover, on hDAT (listed as KM-822), the “effect on DAT uptake activity / specificity” value is listed as “specific for DAT”. For the same molecule, at WT hDAT, the “effect on amphetamine-mediated efflux” value is listed as “potentiated amphetamine-mediated efflux; also recorded: potentiated amphetamine mediated efflux”. Further, at hDAT N93A mutant, the “effect on amphetamine-elicited efflux” value was “blocking amphetamine-elicited efflux; also recorded: blocked”. For the same molecule, in the data set with hDAT L89C mutant (L89A), the “affinity of mutant for ATM5 versus WT” value is recorded as “increased affinity for ATM5”.
As for `CN(C)CCCN1c2ccccc2CCc2ccccc21` [Imipramine], at SmSERT, the affinity corresponds to a Ki of 0.3 ± 0.1 µM.
As for `COC(=O)[C@H]1[C@@H](OC(=O)c2ccccc2)C[C@@H]2CC[C@H]1N2C` [Cocaine], the Ki at SmSERT came out at 35.4 ± 7.6 µM; on SmDAT (setting [8]), 29.4 ± 3.6 µM.
With `CC(NC(C)(C)C)C(=O)c1cccc(Cl)c1` (centres unmarked) [Bupropion], the Ki on SmDAT (setting [8]) stood at 242 ± 36 µM.
The same measure, in the same setting: to `CN(C)CCCC1(c2ccc(F)cc2)OCc2cc(C#N)ccc21` (centres unmarked) [Citalopram] belongs 50.5 ± 4.7 µM.
Regarding `COc1cc(C(C(=O)NCCC(C)C)N(CCCO)C(=O)c2snc(C(N)=O)c2N)ccc1O` (centres unmarked) [ATM2, 4-amino-N^5-{1-(4-hydroxy-3-methoxyphenyl)-2-[(3-methylbutyl)amino]-2-oxoethyl}-N^5-(3-hydroxypropyl)-1,2-thiazole-3,5-dicarboxamide], at SERT, the “effect on SERT uptake activity / specificity” value was “higher activity towards SERT”; the “shape of concentration response on transporter uptake” value was “biphasic mode of action, enhancing transporter activity at low concentrations and inhibiting transporter function at higher concentrations”. In addition, the “effect on affinity of amphetamine for NET” value on NET [2] is “affinity for amphetamine was enhanced”.
For the molecule `CC(N)Cc1ccccc1` (centres unmarked) [Amphetamine], the Ki was 393 ± 26 µM on SmSERT and 10 ± 0.5 µM at SmDAT. The amphetamine-elicited efflux result in [3] is recorded as “no significant amphetamine-elicited efflux”; in data set [4], “no significant amphetamine-elicited efflux”; at wild-type human SERT, “substantial efflux”. In addition, the “reversal of transport (efflux)” value in the data set with mSERT mutant YETQ-L563V [5] is given as “did not elicit any significant reversal of transport”.
Consider `COc1cccc(NC(=O)Cn2c(SCC(=O)Nc3ccc(F)cc3)nnc2-c2ccncc2)c1` [KM-409, N-(4-fluorophenyl)-2-((4-(2-((3-methoxyphenyl)amino)-2-oxoethyl)-5-(pyridin-4-yl)-4H-1,2,4-triazol-3-yl)thio)acetamide], for which the “activity towards NET” value on NET [6] was “displayed activity towards NET”.

B1: WT mSERT (Mus musculus) (protein)
chain: METTPLNSQKVLSECKDKEDCQENGVLQKGVPTPADKAGPGQISNGYSAVPSTSAGDEAPHSTPAATTTLVAEIHQGERETWGKKMDFLLSVIGYAVDLGNIWRFPYICYQNGGGAFLLPYTIMAIFGGIPLFYMELALGQYHRNGCISIWKKICPIFKGIGYAICIIAFYIASYYNTIIAWALYYLISSFTDQLPWTSCKNSWNTGNCTNYFAQDNITWTLHSTSPAEEFYLRHVLQIHQSKGLQDLGTISWQLALCIMLIFTIIYFSIWKGVKTSGKVVWVTATFPYIVLSVLLVRGATLPGAWRGVVFYLKPNWQKLLETGVWVDAAAQIFFSLGPGFGVLLAFASYNKFNNNCYQDALVTSVVNCMTSFVSGFVIFTVLGYMAEMRNEDVSEVAKDAGPSLLFITYAEAIANMPASTFFAIIFFLMLITLGLDSTFAGLEGVITAVLDEFPHIWAKRREWFVLIVVITCILGSLLTLTSGGAYVVTLLEEYATGPAVLTVALIEAVVVSWFYGITQFCSDVKEMLGFSPGWFWRICWVAISPLFLLFIICSFLMSPPQLRLFQYNYPHWSIILGYCIGTSSVICIPIYIIYRLISTPGTLKERIIKSITPETPTEIPCGDIRMNAV
Consider B1, for which the Km in data set [7] was found to be 3.4 ± 0.7 µM.

As usually defined, the Km is the substrate concentration at which the rate is half of its maximum. The Ki is a measure of affinity in units of concentration, obtained from inhibition or displacement.
